Experimental data from patent EP2067861A1, “Animals of the rattus genus wherein msh6 expression is functionally decreased and methods for the generation of specific mutants therefrom” (Koninklijke Nederlandse Akademie van Wetenschappen, priority 2007, dated 2009).

Experiments:
msh6^-/- male rats = test: Survival of ENU treated msh6^-/- male rats; type: in vivo, rat; details: for # Surviving founders: 3 x 30 mg/kg bodyweight ENU
Excerpt: • Figure 1. Characteristics of the msh6^-/- rat. (A) Genomic organization of the msh6 gene in rats. The arrow marks the position of the ENU-induced mutation that results in a premature stop codon. The sequence trace indicates the T to A […] in a heterozygous rat. (B) Western blot (WB) of testes and cultured rat embryonic fibroblast (CREF) lysates stained with antibodies against human MSH6 (160 kDa). Lysate of human embryonic kidney (HEK) cells was loaded as a positive control. MSH6 protein is completely absent in msh6^-/- testes and CREF. Coomassie brilliant blue staining (CBB) was used as a control for protein loading. • Figure 2. Microsatellite instability in the germ line. (A) A mononucleotide repeat of 20 repetitive subunits (G)20 was analyzed in a cross between a msh6^-/- father and a wild type mother and their msh6^+/- offspring. The red line indicates the size of the most prominent amplification product in both parents. In the DNA sample of the offspring one of the alleles has lost one repetitive subunit. (B) Fragment analysis of a dinucleotide repeat (CA)36 that is polymorphic between the founder animals. […] The orange peaks represent the size marker that was loaded to determine the size of the PCR product. • Figure 3. Survival of the msh6^-/- rats. The time the rats became moribund is recorded. Red line, msh6^-/- rats (n=17); black line, control group (n=100, Source Harlan). • Figure 4. Tumors observed in the msh6^-/- rat. (A) Section of a mediastinal lymphoblastic lymphoma of a msh6^-/- male rat stained with HE. (B) A higher magnification of the lymphoblastic lymphoma. (C) Section of a leiomyosarcoma of the endometrium stained with HE. (D) Section of an endometrial carcinoma stained with HE. (E) A higher magnification of the endometrial carcinoma. (F) A section of a squamous cell carcinoma in the stomach of a msh6^-/- female rat stained with HE. (G) Section of a fibroadenoma of a msh6^-/- male rat stained with HE. (H) Section of a liver with lymphoblastic lymphoma leukemia stained with HE. (I) Section of a testicle containing a Leydig cell tumor stained with HE. • Figure 5. Survival of msh6^-/- male rats after treatment of different concentrations of ENU compared to untreated msh6^-/- male rats. Time points of the last ENU injection and the beginning of the mutation discovery screen are indicated. • Figure 6. ENU-induced target-selected knockout protocol. (A) Msh6^-/- males were mutagenized and crossed with wild-type Wistar females. At two weeks of age tissue samples from the F1 progeny were taken and DNA was isolated. (B) For every DNA samples 768 pre-selected amplicons were PCR amplified and dideoxy sequenced. (C) Sequence traces for the same amplicon of the different animals was aligned, processed with PolyPhred (Nickerson et al, (1997) Nucleic Acids Res 25, 2745-51) and analyzed using in house developed software. (D) ENU-induced de novo mutations were verified by independent PCR amplification and sequencing and pups carrying interesting mutations were weaned. The whole procedure from taking tissue samples to weaning interesting mutants takes 1 week, indicated in the centre of the figure. • Figure 7. ENU-induced mutation spectrum in MSH6 deficient background compared to MMR proficient animals. […] (B) The change of introducing a premature stop codon with ENU-induced MSH6 proficient and deficient mutation spectra. For the calculations the sequences of the 768 representative exon-containing amplicons were used (* indicates significance, p < 0.05).
All experiments were approved by the Animal Care Committee of the Royal Dutch Academy of Science according to the Dutch legal ethical guidelines. Experiments were designed to minimize the number of required animals and their suffering. Male MSH6 knockout rats (Msh6^1Hubr) of 12 weeks of age were given three weekly intraperitoneal injections of 25, 30 and 35 mg/kg bodyweight ENU. […]

Control = Control 3 x 40 mg/kg ENU, cited from earlier work
[1] = 362 pups, 37,27 x 10^6 bases screened

CCN(N=O)C(N)=O [ENU, N-ethyl-N-nitrosourea]
# Surviving founders (msh6^-/- male rats; 17 - 19 weeks after last injection): 5/5 | # Surviving founders (msh6^-/- male rats; 20 - 22 weeks after last injection): 5/5 | # Surviving founders (msh6^-/- male rats; 23 - 25 weeks after last injection): 5/5 | # Surviving founders (msh6^-/- male rats; 26 - 29 weeks after last injection): 3/5 | age after which no male was alive (msh6^-/- male rats; ENU treated msh6^-/- males): ≤ 50 weeks | average mean of survival (msh6^-/- male rats; ENU treated msh6^-/- males (untreated msh6^-/- rats: median survival 14 months)): 37 ± 3 weeks | average mean of survival (msh6^-/- male rats; ENU treated msh6^-/- males, same value restated in months): ~8 months | # Surviving founders (msh6^-/- male rats; fertile msh6^-/- males, 14 - 16 weeks after last injection): 5/5 | # Mutations - nonsense (Control; [1]): 0 | # Mutations - total (Control; [1]): 30 | # Mutations - missense (Control): 17 | # Mutations - non-coding (Control): 6 | # Mutations - silent (Control): 7 | Mutation Frequencies (Control; highest ENU-induced mutation frequency in rats): 8.05 x 10^-7
